The values below are quoted from earlier work in paper PMC6309200 (Journal of Controlled Release, 2018).

Where a SMILES comes first, the peptide text is derived from it.

This data set has as its system PA-specific CD8+ T cells. Conditions: shown previously; ref [15].

For `CC(=O)N[C@@H](CCC(N)=O)C(=O)N[C@@H](CCC(N)=O)C(=O)N[C@@H](CCCCN)C(=O)N[C@@H](Cc1ccccc1)C(=O)N[C@@H](CCC(N)=O)C(=O)N[C@@H](Cc1ccccc1)C(=O)N[C@@H](CCC(N)=O)C(=O)N[C@@H](Cc1ccccc1)C(=O)N[C@@H](CCC(=O)O)C(=O)N[C@@H](CCC(N)=O)C(=O)N[C@@H](CCC(N)=O)C(N)=O` [Q11] (Ac-QQKFQFQFEQQ-NH2), the “Immunogenicity without attached competent epitopes” value is on record as “non-immunogenic”.
